The record followed here is patent publication US20190127456A1, “METHODS OF TREATING IDIOPATHIC PULMONARY FIBROSIS” (FibroGen, Inc., priority 2017, published 2019).

For data set [1], the system named is radiation-induced lung fibrosis. Briefly: Mouse radiation-induced lung fibrosis model: lung density by HRCT. As to conditions: 14.5 Gy irradiated mice, treated 8 weeks from week 16, measured at 24 weeks; FIG. 2. It is filed as in vivo. The method, then: The objective of this study was to compare the activity of pamrevlumab monotherapy to either pirfenidone or nintedanib alone, and to evaluate the potential for enhanced activity of the combined agents. […] In this study, mice received thoracic irradiation (RT), followed by the therapeutic administration of the agents at 16 weeks post-irradiation when lung remodeling was evident by HRCT. After 8 weeks of drug treatment, lung density and volume were assessed by HRCT, lung function was assessed by blood gas analysis, and mice were sacrificed for histologic and gene expression analysis. C57B1/6 mice were irradiated with 14.5 Gy photons; full thorax, single dose. Treatment with therapeutic agent(s) (pamrevlumab, pirfenidone, and/or nintedanib) was initiated 16 weeks post-irradiation and continued for 8 weeks. Pamrevlumab (FG) was given IP, BIW, at 40 mg/kg; pirfenidone (PF) was given PO in chow, QD, at 300 mg/kg; nintedanib (ND) was given PO in chow, QD, at 100 mg/kg. Treatment with each agent alone, with combinations of two, and with a triple combination were carried out. Controls included non-irradiated mice, mice that were irradiated and not treated, and mice that were irradiated and given human IgG. Endpoint measurements were taken at 24 weeks for HRCT (lung structure), blood gas analysis (lung function), histology and gene expression analysis. […]

Data set [2] has the same test system. Nature of the data set: Mouse radiation-induced lung fibrosis model: lung function by blood gas analysis. In kind it is in vivo. As to conditions: blood gas analysis at 24 weeks, compared to RT with no treatment; data not shown. The method, then:
The objective of this study was to compare the activity of pamrevlumab monotherapy to either pirfenidone or nintedanib alone, and to evaluate the potential for enhanced activity of the combined agents. […] In this study, mice received thoracic irradiation (RT), followed by the therapeutic administration of the agents at 16 weeks post-irradiation when lung remodeling was evident by HRCT. After 8 weeks of drug treatment, lung density and volume were assessed by HRCT, lung function was assessed by blood gas analysis, and mice were sacrificed for histologic and gene expression analysis. C57B1/6 mice were irradiated with 14.5 Gy photons; full thorax, single dose. Treatment with therapeutic agent(s) (pamrevlumab, pirfenidone, and/or nintedanib) was initiated 16 weeks post-irradiation and continued for 8 weeks. Pamrevlumab (FG) was given IP, BIW, at 40 mg/kg; pirfenidone (PF) was given PO in chow, QD, at 300 mg/kg; nintedanib (ND) was given PO in chow, QD, at 100 mg/kg. Treatment with each agent alone, with combinations of two, and with a triple combination were carried out. Controls included non-irradiated mice, mice that were irradiated and not treated, and mice that were irradiated and given human IgG. […] The effect of the treatments on lung function was assessed by blood gas analysis (data not shown).

In data set [3] the test system is IPF. Briefly: Phase two study in IPF patients: St. George's Respiratory Questionnaire (SGRQ). In kind it is in vivo, human. As to conditions: 48 weeks treatment, compared with placebo, FIGS. 5A-5D. The method, then:
(§1) A double-blind, placebo-controlled Phase two study was conducted in which 103 patients, randomized (1:1) to receive pamrevlumab or placebo, were treated for 48 weeks. Patients' self-administered the Saint George's Respiratory Questionnaire (SGRQ) to assess changes in health-related quality of life parameters over the course of the study. This questionnaire was developed for patients with chronic airflow limitation and the results correlate well with established measures of symptom level, disease activity and disability. Patients completed the SGRQ on Day 1 (baseline) and every 12 weeks thereafter during the 48-week treatment period. The SGRQ comprises three domains (symptoms, activity, and impact) with the score for each domain ranging from 0 to 100, with higher scores indicating worse health-related quality of life (Jones P W, et al. Respir Med 1991; 85:Suppl B:25-31; Barr J T et al. Clin Ther 2000; 22:1121-45).

Data set [4] concerns IPF. Briefly: Phase two study in IPF patients: UCSD Shortness of Breath Questionnaire (UCSD-SOBQ). The following applies: for mean UCSD-SOBQ score: IPF patients, n=22, FIG. 6 change from baseline. It is filed as in vivo, human. The source says:
A sub-set of patients in the Phase two clinical trial described above in Example 2 (pamrevlumab n=22, placebo n=20), self-administered the University of California, San Diego—Shortness of Breath Questionnaire (UCSD-SOBQ) at the start of therapy (baseline) and then every 12 weeks while enrolled in the 48 week study. The UCSD-SOBQ has been validated as an acceptable measure to assess change in dyspnea over time in IPF (Swigris et al., Respir Med. 2012 October; 106(10): 1447-1455).
The questionnaire has 24 sections that assess dyspnea associated with activities of daily living (ADLs) in different lung disorders, including IPF. Twenty-one sections relate to the severity of dyspnea experienced during different daily activities, while three sections assess the limitations due to shortness of breath, fear of harm from overexertion and fear of shortness of breath. Each question has a 6-point scale (0=“not at all” to 5=“maximal or unable to do because of breathlessness”. The total score ranges from 0 to 120, with higher scores indicating greater dyspnea.
An ANCOVA model with treatment as fixed effect and baseline UCSD-SOBQ score as covariate was applied to observed and imputed data at each visit. Missing results at post-baseline visits were mputed using the predicted values from a random coefficient model. The analysis included all subjects who had baseline and at least one post-baseline UCSD-SOBQ evaluation.

Data set [5] in a line: Phase two study in IPF patients: treatment emergent adverse events. In kind it is in vivo, human. The following applies: Phase two trial, 48 weeks. The method, then: as §1
Patients in the Phase two clinical trial described above in Example 2 were monitored for the occurrence of treatment emergent adverse events. The percentage of patients treated with an anti-CTGF antibody (pamrevlumab) that experienced diarrhea was 16.0% compared to 7.5% for placebo treated patients. The percentage of patients treated with pamrevlumab that experienced nausea was 14.0% compared to 13.2% for placebo treated patients. […]

Turning to pamrevlumab, the “radiation-induced increase in lung density (Hounsfield Units)” value in data set [1] is recorded as “significantly inhibited the increase in radiation-induced lung density from baseline”. Further, in data set [2], the O2 saturation entry is reported as “normalized O2 saturation”. Moreover, the “SGRQ all domains (symptoms, activity, impact) and total score, change from baseline” value with IPF [3] was “improvement (lower values)”. Moreover, the “mean UCSD-SOBQ score” value in the data set on IPF [4] (Week 12) stood at 1.98; in the data set on IPF [4] (Week 36), 3.76; in the data set with IPF [4] (Week 48) it was 2.26. Also, in the data set on IPF [4] (pamrevlumab vs placebo, Week 48, p-value=0.0460), the “difference in mean UCSD-SOBQ score between the two arms” value is −13.32 points. For the same substance, in data set [5] (placebo 7.5%), the “percentage of patients that experienced diarrhea” value was 16.0%. Moreover, the “percentage of patients that experienced nausea” value in data set [5] (placebo 13.2%) came out at 14.0%.
